Reference: patent publication US6623933B1 (priority 1999, dated 2003)
Counter-ions that a name gives are not always drawn. Like-named read-outs stand apart in the source and are kept apart here.

Experiments:
Assay type in all cases: cell-based
[1] = test system: primary cultures of rat hippocampal neurons; assay: NMDA-induced neuronal death, trypan blue exclusion
NR1111/NR2A = assay: NMDA-induced currents of NR1 splice variants, Xenopus oocytes, Example 4
Description: Overnight cultures (500 ml) of transformed bacterial cells were prepared in order to grow sufficient quantities for maxiprep isolation of the plasmid CDNA. Maxipreps were done using a Sorvall RC-5B ultracentrifuge, Qiagen columns and cDNA was quantitated with spectrophotometry (OD260 and OD260/ OD280 ratio). The resulting plasmid cDNA was linearized by digestion with an appropriate restriction enzyme that cleaves distal to the cDNA insert (XhoI for NR2A or NotI for NR1100, NR1000, NR1111, NR1011, NR1101, NR1001). […] The samples were stored at −20° C. until use.
In vitro transcription was performed using the Ambion mMessage mMachine kit with T7 (NR1100, NR1000, NR1111, NR1011, NR1101, NR1001) RNA polymerase. The reaction was assembled on ice and allowed to incubate at 37° C. for 1-2 hr. The resulting mRNA was precipitated (reaction termination) using lithium chloride/5 mM EDTA solution and dissolved in RNase-free H2O. The concentration (OD260) and OD260/OD280 ratio (should be more than 1.5) was determined by spectrophotometer. The yield of mRNA was generally 15-30 μg. mRNA was stored at −80° C. until use.
Intracellular recording microelectrodes were fabricated from 100 μl borosilicate glass disposable micropipettes using a 2-step protocol on a standard horizontal Flaming-Brown micropipette puller.

GluR1 AMPA receptor = target: T1, GluR1 AMPA receptor (Rattus norvegicus, UniProt P19490); assay: Kainate-induced currents, Xenopus oocytes injected with GluR1 cRNA
T1 construct: expressed in transfected cells; host or cells: Xenopus oocytes injected with GluR1 cRNA
Text: Plasmids were obtained from the following individuals: Dr. Suzanne Zukin (Albert Einstein College of Medicine, Bronx, N.Y.), NR1100; Dr. Shigetada Nakanishi (Kyoto University Faculty of Medicine, Kyoto, Japan), NR2A; Dr. Stephen Heinemann (Salk Institute, San Diego, Calif.), GluR1 (flop), GluR3 (flop), and GluR6. Plasmids were linearized with BamH1 (NR1100), XhoI (NR2A, GluR1, GluR3) or XbaI (GluR6) prior to in vitro transcription with T3 (GluR1, GluR3, GluR6) or T7 (NR1100, NR2A) RNA polymerase using the Message Machine kit (Ambion, Austin, Tex.). […] RNA solutions (50-70 nl) were injected into oocytes for delivery of NR1100 (5 ng), NR1100:NR2A (1:10 ng), GluR1 (5 ng). GluR3 (5 ng), or GluR6 (20 ng). Oocytes were incubated in ND96 at 18-20° C. for 3-7 days prior to electrophysiological recording.
Steroid solutions were prepared as 70-100 mM frozen stocks in dimethyl sulfoxide (DMSO). The final DMSO concentration of all recording solutions was between 0.1% to 0.5% and was constant within an experiment.
Perfusion control and data acquisition were carried out using an automated oocyte electrophysiology workstation that was developed for the rapid collection of concentration-response data and real-time waveform analysis (Yaghoubi et al., Soc. Neurosci. Abstr. 20: 1109 (1995)). This system is implemented on a Macintosh IIci computer (Apple Computer, Cupertino, Calif.) equipped with MacA-DIOS II data acquisition and control hardware (GW Instruments, Somerville, Mass.). Drug application is controlled by the computer through a series of valves, using custom-written software based on the SuperScope II development environment, improving the efficiency and reproducibility of data collection. Experiments were carried out using an Axoclamp-2A voltage clamp amplifier (Axon Instruments, Foster City, Calif.) in two-electrode voltage clamp mode. Intracellular microelectrodes (1-3 MΩ) were filled with 3 M KCl. […] Membrane potential was clamped at −60 to −70 mV and stepped to −100 mV at the start of data acquisition unless otherwise stated. […] Current and voltage recordings were digitized at 100 Hz for analysis. GluR6 injected oocytes were treated for 10 min with 10 μg/ml concanavalin A to prevent fast desensitization.
Results are expressed as mean±S.E.M. Statistical comparisons were made using Student's t-test.

[2] = acute 15 min NMDA exposure, +100 μM 3α5βS
[3] = acute 15 min NMDA exposure, DMSO vehicle
[4] = chronic 16 hour NMDA exposure, +100 μM 3α5βS
[5] = chronic 16 hour NMDA exposure, DMSO vehicle

T1 sequence (P19490 19-907): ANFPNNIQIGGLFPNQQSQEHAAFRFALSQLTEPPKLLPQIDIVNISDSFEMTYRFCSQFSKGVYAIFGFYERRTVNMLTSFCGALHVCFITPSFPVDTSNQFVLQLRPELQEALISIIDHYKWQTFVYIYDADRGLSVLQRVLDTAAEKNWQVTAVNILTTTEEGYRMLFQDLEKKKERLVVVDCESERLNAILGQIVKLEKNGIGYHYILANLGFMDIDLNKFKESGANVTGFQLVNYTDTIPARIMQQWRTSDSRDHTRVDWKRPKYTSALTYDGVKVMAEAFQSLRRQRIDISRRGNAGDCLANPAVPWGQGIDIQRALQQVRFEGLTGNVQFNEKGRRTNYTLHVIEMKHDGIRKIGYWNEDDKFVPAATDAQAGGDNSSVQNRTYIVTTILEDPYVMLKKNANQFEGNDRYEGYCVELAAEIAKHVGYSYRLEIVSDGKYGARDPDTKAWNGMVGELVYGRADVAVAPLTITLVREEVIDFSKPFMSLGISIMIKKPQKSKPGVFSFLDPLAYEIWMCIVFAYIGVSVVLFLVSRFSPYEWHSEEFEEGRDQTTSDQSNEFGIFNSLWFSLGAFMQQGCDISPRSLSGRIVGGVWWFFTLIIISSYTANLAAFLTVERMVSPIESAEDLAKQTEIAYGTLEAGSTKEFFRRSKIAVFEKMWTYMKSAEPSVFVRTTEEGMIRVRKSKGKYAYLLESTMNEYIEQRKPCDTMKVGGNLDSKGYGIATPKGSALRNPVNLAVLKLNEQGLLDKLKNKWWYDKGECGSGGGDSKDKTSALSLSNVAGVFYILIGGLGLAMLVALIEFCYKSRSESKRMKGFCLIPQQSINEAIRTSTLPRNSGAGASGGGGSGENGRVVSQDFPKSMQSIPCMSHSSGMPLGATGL

## CN[C@H](CC(=O)O)C(=O)O [NMDA, N-methyl-D-aspartate]
[1]; [2]
  NMDA Emax, neuronal death: 63%
  NMDA nH, neuronal death: 1.8
[1]; [3]
  NMDA Emax, neuronal death: 80%
  NMDA nH, neuronal death: 2.1
[1]; [4]
  NMDA Emax, neuronal death: 70%
  NMDA nH, neuronal death: 2.0
[1]; [5]
  NMDA Emax, neuronal death: 86%
  NMDA nH, neuronal death: 1.9
[1]; read-out: NMDA EC50 for neuronal death, acute 15 min NMDA exposure, +100 μM 3α5βS
  EC50: 71 µM
[1]; read-out: NMDA EC50 for neuronal death, acute 15 min NMDA exposure, DMSO vehicle
  EC50: 28 µM
[1]; read-out: NMDA EC50 for neuronal death, chronic 16 hour NMDA exposure, +100 μM 3α5βS
  EC50: 15 µM

## CC(=O)[C@H]1CC[C@H]2[C@@H]3CC[C@@H]4C[C@H](OS(=O)(=O)O)CC[C@]4(C)[C@H]3CC[C@]12C [3α5βS, 3α5β-pregnanolone sulfate]
[1]; Rattus norvegicus, Hippocampal neuron, read-out: 3α5βS EC50, inhibition of NMDA-induced neuronal death
  EC50: 45 µM
[1]; acute 30 μM NMDA exposure
  3α5βS nH, inhibition of neuronal death: 2.5
  maximal inhibition (Imax) of cell death: 97%
[1]; acute 30 μM NMDA, steroid 100 μM (3α5β 50 μM)
  inhibition of NMDA-induced neuronal death: nearly eliminates the toxic effects
NR1111/NR2A; 100 μM 3α5βS
  difference in percentage inhibition between NR1011/NR2A and NR1111/NR2A: 5%
GluR1 AMPA receptor
  Percentage change in kainate response: −47 ± 12(3) %

## pregnenolone sulfate [PS]
NR1111/NR2A
  difference in mrc between NR1011/NR2A and NR1111/NR2A: 1.2 fold
NR1111/NR2A; 100 μM PS, pH 6.5
  difference in mrc between NR1011/NR2A and NR1111/NR2A: 1.8 fold
NR1111/NR2A; 100 μM PS, pH 7.5
  difference in mrc between NR1011/NR2A and NR1111/NR2A: 1.6 fold
  difference in percentage potentiation between NR1011/NR2A and NR1111/NR2A: 106%
NR1111/NR2A; 100 μM PS, pH 8.5
  difference in percentage potentiation between NR1011/NR2A and NR1111/NR2A: 91%
GluR1 AMPA receptor; GluR1, 100 μM kainate
  PS Emax, percentage change in kainate-induced current: −99%
GluR1 AMPA receptor; GluR1, 200 μM PS
  inhibition of kainate response: 85±4%
GluR1 AMPA receptor; GluR1, PS 100 μM
  reduction of kainate Imax: 83%
GluR1 AMPA receptor; GluR1, steroid 100 μM
  inhibition of the response to kainate: over 70%
GluR1 AMPA receptor; GluR1, steroid 100 μM, 100 μM kainate, −100 mV
  Percentage change in kainate response: −85 ± 1(8) %
